Results taken from the supplement of paper PMC11451515.

Key:
Conditions in all cases: 48 h
[1] = test system: NOMO1; assay: cell viability relative to DMSO control; higher = less cytotoxic
Summary of the method: (§1)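 Leukemia cells (NOMO1 or SEM, 500 cells/well; P12-Ichikawa, 1000 cells/well) were seeded in 5 μl in 1536-well plates after at least four passages of adaptation to each medium. They received library compounds in DMSO by pin dosing, 11 threefold points from 47 μM to 0.79 nM. Luminescence with CellTiter-Glo One was read after 48 h at 37°C. Viability is stated per plate relative to DMSO wells, with cell-free wells as background.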

[2] = test system: P12-Ichikawa; assay: as above
Summary of the method: as §1

[3] = test system: SEM cells; assay: as above
Summary of the method: as §1

[4] = test system: NOMO1; assay: AUC of viability dose-response curve (% viability x log10 dose units); higher = less sensitive
Summary of the method: (§2)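 Leukemia cells adapted to each medium (500 or 1000 cells/well, 1536-well plates) were exposed to library compounds in DMSO for 48 h at 37°C at 11 threefold doses, 47 μM to 0.79 nM. Luminescence by CellTiter-Glo One was normalised per plate to DMSO and cell-free wells, then fitted with a four-parameter log-logistic curve on log10 dose. Curves above full viability were scaled and quality-control failures removed before area under the curve was integrated by trapezoidal rule.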

[5] = test system: P12-Ichikawa; assay: as above
Summary of the method: as §2

[6] = test system: SEM cells; assay: as above
Summary of the method: as §2

Cc1cc(C(=O)N2CCN(c3cccc(Cl)c3)CC2)n(-c2ccccc2)n1
cell viability [%]
Conditions | [1] | [2] | [3]
HPLM + 10% dialyzed FBS, 0.000781 µM | 116 | 109 | 109
HPLM + 10% dialyzed FBS, 0.00234 µM | 115 | 107 | 96.7
HPLM + 10% dialyzed FBS, 0.00702 µM | 114 | 103 | 102
HPLM + 10% dialyzed FBS, 0.0211 µM | 97.7 | 107 | 102
HPLM + 10% dialyzed FBS, 0.0632 µM | 115 | 103 | 109
HPLM + 10% dialyzed FBS, 0.19 µM | 116 | 103 | 96
HPLM + 10% dialyzed FBS, 0.569 µM | 91.8 | 105 | 92.5
HPLM + 10% dialyzed FBS, 1.71 µM | 70.7 | 50.2 | 52.6
HPLM + 10% dialyzed FBS, 5.12 µM | 30.7 | 23.9 | 25.5
HPLM + 10% dialyzed FBS, 15.4 µM | 26.5 | 10.1 | 21.7
HPLM + 10% dialyzed FBS, 46.1 µM | 29.3 | 12.5 | 18.2
RPMI 5 mM glucose + 10% FBS, 0.000781 µM | 90.3 | 105 | 107
RPMI 5 mM glucose + 10% FBS, 0.00234 µM | 99.9 | 113 | 118
RPMI 5 mM glucose + 10% FBS, 0.00702 µM | 96.1 | 102 | 116
RPMI 5 mM glucose + 10% FBS, 0.0211 µM | 97.5 | 105 | 122
RPMI 5 mM glucose + 10% FBS, 0.0632 µM | 94.5 | 101 | 107
RPMI 5 mM glucose + 10% FBS, 0.19 µM | 99.7 | 90.2 | 110
RPMI 5 mM glucose + 10% FBS, 0.569 µM | 99.6 | 101 | 120
RPMI 5 mM glucose + 10% FBS, 1.71 µM | 92.2 | 80.5 | 81.5
RPMI 5 mM glucose + 10% FBS, 5.12 µM | 69.7 | 36.8 | 34.8
RPMI 5 mM glucose + 10% FBS, 15.4 µM | 15.9 | 10.4 | 17.5
RPMI 5 mM glucose + 10% FBS, 46.1 µM | 14.8 | 16.6 | 15.6
RPMI 5 mM glucose + 10% dialyzed FBS, 0.000781 µM | 98 | 101 | 105
RPMI 5 mM glucose + 10% dialyzed FBS, 0.00234 µM | 100 | 92.8 | 103
RPMI 5 mM glucose + 10% dialyzed FBS, 0.00702 µM | 96.6 | 105 | 112
RPMI 5 mM glucose + 10% dialyzed FBS, 0.0211 µM | 90.7 | 104 | 89.4
RPMI 5 mM glucose + 10% dialyzed FBS, 0.0632 µM | 89.7 | 103 | 114
RPMI 5 mM glucose + 10% dialyzed FBS, 0.19 µM | 109 | 91.2 | 100
RPMI 5 mM glucose + 10% dialyzed FBS, 0.569 µM | 90.5 | 95.5 | 93.3
RPMI 5 mM glucose + 10% dialyzed FBS, 1.71 µM | 85.9 | 70.1 | 61.1
RPMI 5 mM glucose + 10% dialyzed FBS, 5.12 µM | 38.3 | 40.9 | 24.4
RPMI 5 mM glucose + 10% dialyzed FBS, 15.4 µM | 22 | 20.5 | 19.5
RPMI 5 mM glucose + 10% dialyzed FBS, 46.1 µM | 24.1 | 20.4 | 18.3

AUC of viability dose-response curve
Conditions | [4] | [5] | [6]
HPLM + 10% dialyzed FBS | 364 | 349 | 354
RPMI 5 mM glucose + 10% FBS | 389 | 373 | 368
RPMI 5 mM glucose + 10% dialyzed FBS | 375 | 374 | 357

CCN(C(=O)C/1=C(O)/C2=C(C=CC=C2Cl)N(C)C1=O)C3=CC=CC=C3
cell viability [%]
Conditions | [1] | [2] | [3]
HPLM + 10% dialyzed FBS, 0.000781 µM | 95 | 93.7 | 79.9
HPLM + 10% dialyzed FBS, 0.00234 µM | 106 | 100 | 92.1
HPLM + 10% dialyzed FBS, 0.00702 µM | 97.6 | 98.1 | 99.3
HPLM + 10% dialyzed FBS, 0.0211 µM | 99.3 | 102 | 93.5
HPLM + 10% dialyzed FBS, 0.0632 µM | 87.4 | 97.9 | 84.6
HPLM + 10% dialyzed FBS, 0.19 µM | 84 | 93.2 | 61.8
HPLM + 10% dialyzed FBS, 0.569 µM | 96.6 | 95.9 | 62
HPLM + 10% dialyzed FBS, 1.71 µM | 34.9 | 77.6 | 25.8
HPLM + 10% dialyzed FBS, 5.12 µM | 12.5 | 31.8 | 9.79
HPLM + 10% dialyzed FBS, 15.4 µM | 3.29 | 2.09 | 3.62
HPLM + 10% dialyzed FBS, 46.1 µM | 3.67 | 3.36 | 3.31
RPMI 5 mM glucose + 10% FBS, 0.000781 µM | 80.5 | 90.3 | 88.2
RPMI 5 mM glucose + 10% FBS, 0.00234 µM | 88.8 | 97 | 90.7
RPMI 5 mM glucose + 10% FBS, 0.00702 µM | 93.4 | 98.7 | 99.6
RPMI 5 mM glucose + 10% FBS, 0.0211 µM | 93.8 | 105 | 97.6
RPMI 5 mM glucose + 10% FBS, 0.0632 µM | 96 | 88.8 | 89.5
RPMI 5 mM glucose + 10% FBS, 0.19 µM | 81 | 77.5 | 43
RPMI 5 mM glucose + 10% FBS, 0.569 µM | 90.6 | 82.7 | 53.8
RPMI 5 mM glucose + 10% FBS, 1.71 µM | 43.7 | 52.7 | 14.4
RPMI 5 mM glucose + 10% FBS, 5.12 µM | 15.8 | 25.4 | 5.29
RPMI 5 mM glucose + 10% FBS, 15.4 µM | 2.47 | 1.95 | 3.41
RPMI 5 mM glucose + 10% FBS, 46.1 µM | 2.24 | 2.3 | 3.37
RPMI 5 mM glucose + 10% dialyzed FBS, 0.000781 µM | 96.2 | 85.2 | 93.1
RPMI 5 mM glucose + 10% dialyzed FBS, 0.00234 µM | 89 | 91.3 | 80.1
RPMI 5 mM glucose + 10% dialyzed FBS, 0.00702 µM | 94 | 91.5 | 85.4
RPMI 5 mM glucose + 10% dialyzed FBS, 0.0211 µM | 97.2 | 96.4 | 97.8
RPMI 5 mM glucose + 10% dialyzed FBS, 0.0632 µM | 103 | 99.6 | 80.2
RPMI 5 mM glucose + 10% dialyzed FBS, 0.19 µM | 83.8 | 78.5 | 42.8
RPMI 5 mM glucose + 10% dialyzed FBS, 0.569 µM | 91.9 | 82.8 | 49.6
RPMI 5 mM glucose + 10% dialyzed FBS, 1.71 µM | 53.5 | 46.1 | 26.9
RPMI 5 mM glucose + 10% dialyzed FBS, 5.12 µM | 22 | 16.3 | 6.32
RPMI 5 mM glucose + 10% dialyzed FBS, 15.4 µM | 2.48 | 2.21 | 3.84
RPMI 5 mM glucose + 10% dialyzed FBS, 46.1 µM | 2.14 | 3.11 | 3.31

AUC of viability dose-response curve
Conditions | [4] | [5] | [6]
HPLM + 10% dialyzed FBS | 319 | 356 | 272
RPMI 5 mM glucose + 10% FBS | 306 | 322 | 258
RPMI 5 mM glucose + 10% dialyzed FBS | 328 | 308 | 250
